Measured values as given in article PMC6115456, “PI3Ka-Akt1-mediated Prdm4 induction in adipose tissue increases energy expenditure, inhibits weight gain, and improves insulin resistance in diet-induced obese mice” (Cell Death & Disease, 2018).

Molecular target: T1, PI3Kα (class I catalytic subunit p110α) (Homo sapiens, UniProt P42336)
T1 construct: gene PIK3CA
Assay: PI3K ADP-Glo kinase assay (Promega) on purified PI3Kα; also […] inhibition at […] in a recombinant kinase panel
Format: biochemical

T1 sequence (P42336 whole entry): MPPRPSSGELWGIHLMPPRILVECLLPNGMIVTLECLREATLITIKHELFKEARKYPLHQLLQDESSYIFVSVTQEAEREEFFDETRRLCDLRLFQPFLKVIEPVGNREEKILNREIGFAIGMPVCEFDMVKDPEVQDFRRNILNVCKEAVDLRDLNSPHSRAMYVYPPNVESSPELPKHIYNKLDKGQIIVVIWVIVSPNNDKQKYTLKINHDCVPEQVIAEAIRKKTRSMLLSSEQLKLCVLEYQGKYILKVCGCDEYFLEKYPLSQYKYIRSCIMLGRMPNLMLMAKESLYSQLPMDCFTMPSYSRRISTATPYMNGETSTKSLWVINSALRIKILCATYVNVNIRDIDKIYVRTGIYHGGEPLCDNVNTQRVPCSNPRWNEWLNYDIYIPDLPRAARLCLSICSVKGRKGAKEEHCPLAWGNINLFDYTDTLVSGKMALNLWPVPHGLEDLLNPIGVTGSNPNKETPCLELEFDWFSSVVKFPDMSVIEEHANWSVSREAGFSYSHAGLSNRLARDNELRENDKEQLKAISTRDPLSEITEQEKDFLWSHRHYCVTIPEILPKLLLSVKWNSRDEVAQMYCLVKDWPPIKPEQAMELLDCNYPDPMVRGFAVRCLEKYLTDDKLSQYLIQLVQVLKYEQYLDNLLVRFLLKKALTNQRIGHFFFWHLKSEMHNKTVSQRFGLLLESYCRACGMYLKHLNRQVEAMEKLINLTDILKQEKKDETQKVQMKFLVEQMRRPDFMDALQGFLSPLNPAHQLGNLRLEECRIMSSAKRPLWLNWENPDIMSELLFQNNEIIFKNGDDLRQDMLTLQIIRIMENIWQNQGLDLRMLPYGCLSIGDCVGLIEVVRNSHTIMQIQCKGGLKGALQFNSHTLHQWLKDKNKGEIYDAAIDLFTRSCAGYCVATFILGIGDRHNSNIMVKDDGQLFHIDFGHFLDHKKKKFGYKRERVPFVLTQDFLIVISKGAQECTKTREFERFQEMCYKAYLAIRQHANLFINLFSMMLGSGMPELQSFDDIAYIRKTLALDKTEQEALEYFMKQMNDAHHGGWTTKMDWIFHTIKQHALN
T1 sequence (P27986 2-724 partner): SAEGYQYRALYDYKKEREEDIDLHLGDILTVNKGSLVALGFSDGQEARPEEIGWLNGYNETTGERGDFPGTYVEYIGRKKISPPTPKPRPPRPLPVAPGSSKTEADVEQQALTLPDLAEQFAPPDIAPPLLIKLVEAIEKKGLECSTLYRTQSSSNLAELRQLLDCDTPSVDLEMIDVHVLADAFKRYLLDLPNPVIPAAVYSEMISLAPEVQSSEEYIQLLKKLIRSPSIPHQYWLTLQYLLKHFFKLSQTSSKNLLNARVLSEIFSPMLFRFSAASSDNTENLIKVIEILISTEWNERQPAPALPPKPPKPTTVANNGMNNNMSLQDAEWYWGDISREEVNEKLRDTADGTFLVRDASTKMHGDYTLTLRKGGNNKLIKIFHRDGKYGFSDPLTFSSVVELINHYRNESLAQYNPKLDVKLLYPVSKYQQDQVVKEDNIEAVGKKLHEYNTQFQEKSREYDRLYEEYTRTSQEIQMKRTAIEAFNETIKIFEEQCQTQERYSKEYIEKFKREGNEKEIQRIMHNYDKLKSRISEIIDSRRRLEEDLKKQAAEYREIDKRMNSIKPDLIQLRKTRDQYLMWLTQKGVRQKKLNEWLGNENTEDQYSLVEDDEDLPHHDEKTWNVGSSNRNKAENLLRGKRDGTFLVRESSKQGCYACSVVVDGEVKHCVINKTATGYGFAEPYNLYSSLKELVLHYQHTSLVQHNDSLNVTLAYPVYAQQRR

IC50: 6.4 µM
SMILES: O=C(/C=C/c1ccc(O)c(O)c1)c1ccc(O)cc1O [butein]
